Here are results for six molecules from patent publication US4933346A, “Diarylalkyl piperazine derivatives, a process for their preparation, their use, and medicaments containing them” (Hoechst Aktiengesellschaft, priority 1987, dated 1990).

A word on the IC50: it is the midpoint of a concentration-inhibition curve. Read a low IC50 as greater potency in that assay.

The structures appear in SMILES notation. Structures can show the parent of a compound that is named as a salt.

This assay deals with ^3 H-nitrendipine binding, membrane preparation obtained from the cortex of the rat brain. The assay is described as follows: displacement of tritium-labeled nitrendipine in a membrane preparation from the cortex of the rat brain. As to conditions: ^3 H-nitrendipine 0.1 nM, 25° C., 60 min, pH 7.4; unspecific binding with 1 μM nifedipine. As to the method: We carried out this test in a membrane preparation obtained from the cortex of the rat brain and washed several times, the method which we used being essentially that of R. J. Gould et al. (Proc. Natl. Acad. Sci. USA 79, 3656 [1982]). […] The membrane fractions were removed by vacuum filtration through Whatman GF/F fiber glass filters, and the radioactivity was measured in a liquid scintillation counter. We determined the unspecific ^3 H-nitrendipine binding in the presence of 1 μM nifedipine. The IC50 is determined as characteristic quantity, i.e. the concentration of test substance which is able to displace 50% of the radiolabeled nitrendipine.
In turn, `Fc1ccc(C(CCCN2CCN(CCSc3ccc(Cl)cc3)CC2)c2ccc(F)cc2)cc1` [Example 1, 1-[4,4-bis(4-fluorophenyl)butyl]-4-[2-(4-chlorophenylthio)ethyl]piperazine] gave a 50% inhibitory concentration (IC50) of 4 nM.

Molecule `Cc1ccc(SCCN2CCN(CCCC(c3ccc(F)cc3)c3ccc(F)cc3)CC2)cc1` [Example 2, 1-[4,4-bis(4-fluorophenyl)butyl]-4-[2-(4-methylphenylthio)ethyl]piperazine dihydrochloride] had an IC50 of 20 nM.

With `Fc1ccc(SCCN2CCN(CCCC(c3ccc(F)cc3)c3ccc(F)cc3)CC2)cc1` [Example 3, 1-[4,4-bis(4-fluorophenyl)butyl]-4-[2-(4-fluorophenylthio)ethyl]piperazine dihydrochloride], the 50% inhibitory concentration (IC50) was 7 nM.

The molecule `O=[N+]([O-])c1ccc(SCCN2CCN(CCCC(c3ccc(F)cc3)c3ccc(F)cc3)CC2)cc1` [Example 4, 1-[4,4-bis(4-fluorophenyl)butyl]-4-[2-(4-nitrophenylthio)ethyl]piperazine dihydrochloride] showed an IC50 of 22 nM.

Molecule `Fc1ccc(C(CCCN2CCN(CCSc3cccc(Cl)c3)CC2)c2ccc(F)cc2)cc1` [Example 5, 1-[4,4-bis(4-fluorophenyl)butyl]-4-[2-(3-chlorophenylthio)ethyl]piperazine dihydrochloride] yielded an IC50 of 1.2 nM.

`Cc1cccc(C)c1NC(=O)CN1CCN(CCCC(c2ccc(F)cc2)c2ccc(F)cc2)CC1` [Lidoflazine, lidoflazine, reference compound] yielded an IC50 of 430 nM.
